Entries after “also recorded” stand apart in the source; their conditions may differ.

The target of test [1] is T1, recombinant mouse A3 receptors (Mus musculus, UniProt Q61618).
T1 construct: expressed in transfected cells
T1 sequence (Q61618 1-319): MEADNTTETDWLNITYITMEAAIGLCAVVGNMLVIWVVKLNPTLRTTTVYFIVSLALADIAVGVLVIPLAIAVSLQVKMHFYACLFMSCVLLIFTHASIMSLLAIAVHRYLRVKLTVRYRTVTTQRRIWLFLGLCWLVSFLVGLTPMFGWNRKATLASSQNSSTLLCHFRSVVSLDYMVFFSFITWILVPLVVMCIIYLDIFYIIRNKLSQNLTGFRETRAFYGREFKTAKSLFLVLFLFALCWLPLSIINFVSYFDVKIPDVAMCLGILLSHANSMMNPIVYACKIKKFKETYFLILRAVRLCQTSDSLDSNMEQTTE
Put plainly: Radioligand competition binding to recombinant mouse A3 receptor (HEK293 membranes). Conditions: high affinity conformational state, means ± SEM, at least six experiments, read-out: Binding affinity (Ki) A3R. As for the experimental part:
Membranes from HEK293 cells stably expressing recombinant mouse A2ARs or A3Rs were used for competition binding assays with [^125I]N6-4-amino-3-iodobenzyladenosine for the A3AR or [^125I]2-[2-(4-amino-3-iodophenyl)ethylamino]adenosine for the A2AR as described previously (Lappas et al., 2005a). Radioligand binding experiments were performed with 25 μg of HEK293 cell membrane protein in a total volume of 0,1 ml of 10 MM HEPES with 1 mM EDTA (pH 7.4) supplemented with 2 Unit/ml adenosine deaminase and 5 mM MgCl2. Nonspecific binding was measured in the presence of 100 μM NECA. The incubation time was 120 min at room temperature. Membranes were filtered on Millipore MultiScreen 96-well filtration plates and washed three times with ice-cold buffer (10 mM Tris, 1 mM MgCl2, pH 7,4) using a Brandel 96-well plate washer. The data were fit to a four-parameter logistic equation. IC50 values were determined using GraphPad Prism, and Ki values calculated (Linden, 1982).
. It is important to note that unlike human receptors, in the mouse, the selectivity of all of these agonist compounds for the A2A over the A3 receptor is limited, and the administration of these compounds to mice is expected to produce some degree of A3 receptor activation. […]. Activation of the A3 receptor may exacerbate inflammation by enhancing the degranulation of rodent mast cells (Jin et al., 1997; Ramkumar et al., 1993, Reeves et al., 1997); although tissue protection by A3 receptor activation also has been noted (Rivo et al., 2004). […]

In test [2] the target is T2, recombinant mouse A2A receptors (Mus musculus, UniProt Q60613).
T2 construct: expressed in transfected cells
Put plainly: Radioligand competition binding to recombinant mouse A2A receptor (HEK293 membranes). The conditions noted are these: for Ki: high affinity conformational state, recombinant mouse A2A receptor, means ± SEM, at least six experiments, read-out: Binding affinity (Ki) A2AR; for A3/A2A: ratio of Ki at mouse A3R to Ki at mouse A2AR. The procedure:
Nonspecific binding was measured in the presence of 100 μM NECA. The incubation time was 120 min at room temperature. Membranes were filtered on Millipore MultiScreen 96-well filtration plates and washed three times with ice-cold buffer (10 mM Tris, 1 mM MgCl2, pH 7,4) using a Brandel 96-well plate washer. The data were fit to a four-parameter logistic equation.
On the technique in general: Displacement assays read how much labelled ligand stays bound in the presence of the test substance.

Test [3] has as its system spinal cord compression injury in bone marrow chimera mice. Put plainly: Spinal cord compression injury in bone marrow chimera and A2AR KO mice, locomotor assessment. Format: in vivo, mouse. The procedure: Female mice 7-9 weeks of age were irradiated twice with 600 Rads separated by 4 hours. Bone marrow donor mice 12 weeks of age were sacrificed by a lethal injection of sodium pentobarbital. Bone marrow cells were harvested from femurs and tibia by flushing with RPMI-1640 medium (Invitrogen Corporation, Grand Island, N.Y.) in the presence of 10% heat-inhibited fetal bovine serum (FBS). Connective tissue and debris were carefully removed by washing and centrifuging. Red blood cells were lysed by 1× ZAP-OGLOBIN® II lytic Reagent (Beckman Coulter, Miami, Fla.). Recipient mice were anesthetized intraperitoneally with a mixture of 100 mg/ml ketamine and 20 mg/ml xylazine in saline solution. An aliquot of approximately 2×10^6 cells in 200 μl RPMI-1640 with 10% FBS was injected intravenously through left or right jugular vein. BMT mice were used for experiments after 6 weeks. We have previously shown that this procedure results in efficient repopulation of BMDC cells to irradiated mice (Day et al., 2005).

The target in test [4] is recombinant human A2A receptors (Homo sapiens, UniProt P29274). The conditions noted are these: recombinant human receptors (Rieger et al., 2001); cited from earlier work.
Test [5] deals with spinal cord compression injury, locomotor function. Put plainly: Spinal cord compression injury, locomotor assessment (mBBB). Conditions: for locomotor function (mBBB score) after spinal cord compression: wild type mice, IP from 5 min before compression, twice daily 4 days, days 1-42, FIG. 2.
Procedure: Briefly, mice were anesthetized with a mixture of ketamine and xylazine and placed on a heating pad in a stereotaxic apparatus. A laminectomy was performed at T12 and two adjustable forceps were applied to the vertebra between T11 to T13 to stabilize the spinal cord. Ischemic injury was produced by gently placing a 15 gram compression rod with 1 mm×2 mm rectangular surface onto the intact durra for 5 minutes. […] Injured mice were assessed on post-SCI days 1, 4, 7, 14, 28, and 42. Sham animals received a laminectomy without spinal cord compression. Following SCI, bladders were expressed twice daily until return of normal bladder function.
Animals that were able to walk and scored greater than 14 based on rat BBB scoring criteria were further evaluated based on their ability to traverse steel bars without slipping. Mice were placed on bars 500 mm in length and 3 mm in thickness with decreasing widths: 20 mm (score 16), 15 mm (score 17), 10 mm (score 18), 7 mm (score 19), and 5 mm (score 20). […] Scores obtained from left and right hind limbs were averaged.
Statistical Analysis: Statistical analyses were conducted using SAS version 9.1 (SAS Institute Inc, Cary, N.C.). A mixed model (SAS Proc Mixed) was applied to determine the effect of drug treatment over time. Both the experimental condition (mouse genotype and/or drug) and the day were set as categorical variables. An autoregressive correlation structure was assumed for repeated measures in the entire study.
Test [6] concerns spinal cord white matter / myelin after compression injury. Put plainly: Spinal cord histology and myelin quantification after compression injury. Format: in vivo, mouse. As for the experimental part:
A section of spine between T10 and L1 was removed under anesthesia. The tissue was placed in 4.0% paraformaldehyde in phosphate buffered saline, pH 7.4, and rocked for 4 hours. The disc body, lamina, pedicle, spinous and transverse processes surrounding the cord were carefully removed and the cord trimmed to center the injured area in a 10 mm segment. After incubation at 4° C. overnight, tissues were washed in Dulbecco's phosphate buffered saline (PBS, pH 7.4) twice for 10 minutes, and transferred to cassettes in 70% ethanol for paraffin embedding. Five μm sections were collected at 500 μm intervals using a Leica RM2030 Rotary Microtome. Sections derived from the center of the 2 mm compression zone were stained with hematoxylin & eosin (HE) and eriochrome cyanine (EC) as described below. Slides were examined using an Olympus BX51 light microscope and photographed using an Olympus DP70 digital camera (4080×3072 pixels) with DP70-BSW-V1.2 Capture & Archiving Software.
Hematoxylin & Eosin (HE) Staining. Sections were deparaffinized at 37° C. twice each for 5 minutes in xylene, 100% ethanol, and 95% ethanol, then once for 5 minutes in 70% ethanol and twice for 5 minutes in dH2O. Slides were stained in filtered hematoxylin for 60 seconds and washed in tap water for 3 minutes, stained in Eosin Y for 30 seconds and washed in tap water for 3 minutes. After the slide was dehydrated to xylene, a coverslip was applied.
Eriochrome Cyanine (EC) Staining. The protocol for staining myelin was obtained from the NINDS Spinal Cord Injury Training Course 2004 (The Ohio State University, Columbus, Ohio) and used with minor modifications. […]
Spinal Cord Cross Sectional Area and Myelin Quantification. Total cross-sectional area was measured to determine the extent of spinal cord atrophy, Cross-sectional area stained with EC was calculated by image analysis to evaluate damage of the sagittal myelinated tracts. […] The loss in white matter of each sample was calculated as % of total area stained in respective areas of control samples.

Test [7] concerns contusive spinal cord injury, locomotor function. Put plainly: Contusive spinal cord injury, locomotor assessment (mouse BBB). The conditions noted are these: FIG. 13; for protection from contusive injury in Rag1 KO mice compared to Rag1 KO vehicle: Rag1 KO mice lacking mature lymphocytes.
Source text: Female C57BL/6 wild type and Rag-1 KO mice lacking mature lymphocytes between 6-18 weeks of age were purchased from Jackson Laboratory (Bar Harbor, Me.). Adenosine 2A receptor gene deletion (A2AAR −/−, A2AAR knockout) mice were age-matched to their wild types with same genomic background (C57BL/6). Food and water were provided ad libitum before and after experiments. During the experiment period, animals were housed in a pathogen-free isolation barrier region with chip bedding.
Animals were subjected to comtusive spinal cord injury protocol. Briefly, mice were anesthetized with a mixture of ketamine and xylazine and placed on a heating pad in a stereotaxic apparatus. A laminectomy was performed at T12 and two adjustable forceps were applied to the vertebra between T11 to T13 to stabilize the spinal cord. Contusive spinal cord injury (SCI) was produced with an IH device (PSI, Lexington, Ky.) at a defined force from 30 to 100 Kdynes with a dwell time of 30 msec or 60 sec. […] Injured mice were assessed on days 1, 2, 3, 4, 7, 10, 14, 21, 28, 35, and 42 after injury. Sham animals (n=10) received a laminectomy without spinal cord compression. Following SCI, bladders were expressed twice daily until return of normal reflexive bladder function.
Statistical tests were performed using GraphPad™ Prism version 5 software (GraphPad Software, Inc., San Diego, Calif.). Differences in locomotor scores between groups was analyzed by two-way analysis of variance (ANOVA) employing Bonferroni post-tests for repeated measure comparisons. A P value <0.05 was considered to be significant.

T2 sequence (Q60613 whole entry): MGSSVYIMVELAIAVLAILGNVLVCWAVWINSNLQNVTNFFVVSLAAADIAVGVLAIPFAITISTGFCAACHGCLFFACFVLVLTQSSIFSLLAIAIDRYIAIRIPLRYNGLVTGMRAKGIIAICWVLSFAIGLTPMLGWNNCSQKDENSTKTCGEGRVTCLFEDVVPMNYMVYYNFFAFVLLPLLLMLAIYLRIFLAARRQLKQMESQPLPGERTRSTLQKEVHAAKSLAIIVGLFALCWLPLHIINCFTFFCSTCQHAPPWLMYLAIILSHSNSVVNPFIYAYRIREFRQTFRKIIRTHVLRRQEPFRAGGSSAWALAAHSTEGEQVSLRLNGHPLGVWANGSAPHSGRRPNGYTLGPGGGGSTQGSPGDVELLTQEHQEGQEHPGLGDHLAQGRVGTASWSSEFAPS
recombinant human A2A receptors, sequence (P29274 whole entry): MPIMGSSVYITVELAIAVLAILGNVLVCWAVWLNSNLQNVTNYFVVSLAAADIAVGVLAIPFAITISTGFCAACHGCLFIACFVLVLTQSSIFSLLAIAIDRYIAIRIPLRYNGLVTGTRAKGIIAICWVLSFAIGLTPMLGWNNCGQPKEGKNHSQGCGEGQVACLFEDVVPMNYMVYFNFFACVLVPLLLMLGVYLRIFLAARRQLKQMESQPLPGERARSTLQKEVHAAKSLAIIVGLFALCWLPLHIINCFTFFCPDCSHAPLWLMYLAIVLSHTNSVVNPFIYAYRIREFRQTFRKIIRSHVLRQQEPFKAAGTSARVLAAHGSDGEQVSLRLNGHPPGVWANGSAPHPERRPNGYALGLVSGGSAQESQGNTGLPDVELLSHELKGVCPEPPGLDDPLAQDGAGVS

In general, Ki refers to the equilibrium dissociation constant of an inhibitor or competing ligand from its target. With `CCNC(=O)C1OC(n2cnc3c(N)nc(C#CCC4CCC(C(=O)OC)CC4)nc32)C(O)C1O` (stereo not drawn) [ATL146e, 4-{3-[6-Amino-9-(5-ethylcarbamoyl-3,4-dihydroxy-tetrahydro-furan-2-yl)-9H-purin-2-yl]-prop-2-ynyl}cyclo-hexanecarboxylic acid methyl ester], the Ki in test [1] was 3.3 ± 2 nM.

As for `CCNC(=O)[C@H]1O[C@@H](n2cnc3c(N)nc(C#CCC4CCN(C(=O)OC)CC4)nc32)[C@H](O)[C@@H]1O` [ATL202, 4-{3-[6-amino-9-(5-ethyl-carbamoyl-3,4-dihydroxy-tetrahydro-furan-2-yl)-9H-purin-2-yl]-prop-2-ynyl}-piperidine-1-carboxylic acid methyl ester], the Ki stood at 3.7 ± 0.4 nM in test [1] and 1.5 ± 0.55 nM in test [2].

As for `CCNC(=O)C1OC(n2cnc3c(N)nc(C#CCC4CCN(C(=O)OCC(C)C)CC4)nc32)C(O)C1O` (stereo not drawn) [ATL210, 4-{3-[6-amino-9-(5-ethylcarbamoyl-3,4-dihydroxy-tetrahydro-furan-2-yl)-9H-purin-2-yl]-prop-2-ynyl}-piperidine-1-carboxylic acid isobutyl ester], the values for the Ki in test [1] and in test [2] were 5.4 ± 0.7 nM and 1.04 ± 0.26 nM, respectively. The A3/A2A in test [2] is 5.2.

In the case of `COC(=O)N1CCC(CC#Cc2nc(N)c3ncn(C4OC(C(=O)NC5CC5)C(O)C4O)c3n2)CC1` (stereo not drawn) [ATL313, 4-{3-[6-amino-9-(5-cyclopropylcarbamoyl-3,4-dihydroxy-tetrahydro-furan-2-yl)-9H-purin-2-yl]-prop-2-ynyl}-piperidine-1-carboxylic acid methyl ester], the “protection of locomotor function in mice lacking A2ARs on BMDC cells” value in test [3] (KO/WT chimera or global A2AR KO, FIGS. 5B, 6) is “not KO/WT chimera; also recorded: not protected; also recorded: completely absent”. In addition, the “protection of locomotor function in WT/KO chimera” value in test [3] (WT marrow into A2AR KO recipients, FIGS. 5C, 6, 7) is reported as “greatest protection”. In test [3] (WT, WT/WT and WT/KO mice, FIGS. 5, 6), the “protection of locomotor function in mice with A2ARs on BMDC cells” value is given as “protects WT/WT; also recorded: protected”. In addition, the Ki in test [1] was determined as 19.3 ± 3.3 nM; in test [2], 1.58 ± 0.48 nM. Also, the “affinity and selectivity for human A2A receptor over other adenosine receptor subtypes” value in test [4] was “highly selective”. Also, the “protection from spinal cord compression injury (mBBB)” value is recorded as “no significant protection” in test [5] (2 nmol/kg IP, FIG. 2A) and “does not produce additional protection” in test [5] (dose increased from 6 to 20 nmol/kg IP, FIG. 2A). For the same compound, the “protection from compression injury with delayed treatment” value in test [5] (3 nmol/kg IP, delay 0, 5 or 20 min after SCI, two-way ANOVA, FIG. 9) is recorded as “significant”. In addition, in test [5] (6 nmol/kg ATL313 with equimolar ZM241385, FIG. 2D), the “locomotor protection by agonist combined with antagonist” value is on record as “Early blockade; also recorded: completely blocked”. Further, the “protection when treatment starts just after compression (onset of reperfusion)” value in test [5] (6 nmol/kg IP 10-15 seconds after terminating compression, compared with start before compression, FIG. 8) is listed as “reduces locomotor dysfunction; also recorded: equal protection; also recorded: same reduction in SCI”. The compound also returned a mBBB score in test [5] (6 nmol/kg, day 42 after compression, same animals as myelin analysis, vehicle 5.0±1.4, FIG. 4) of 11.3±0.8. The “optimal dose to reduce SCI (mBBB locomotor score)” value in test [5] (IP twice daily for 4 days during and following compression, FIG. 2A) was determined as 6 nmol/kg. Moreover, the “reversal of protection by delay of administration” value in test [5] (delay 20 minutes, FIG. 9 legend) is reported as “partially”. Moreover, in test [5] (6 nmol/kg), the “locomotor function (mBBB score) after spinal cord compression” value is “significant and sustained increase; also recorded: improved locomotor function at all time points”. For the same compound, the “morphological manifestations of long-term spinal cord injury (H&E, EC)” value in test [6] (6 nmol/kg, day 42, FIG. 3) is “substantially reversed”. Also, the “spared myelin (EC-stained area, normalized to sham/uninjured)” value in test [6] (6 nmol/kg, day 42 after compression, vehicle 61.0%±3.6%) was 81.9±0.9%. Moreover, in test [6] (day 42, N=3-4, P<0.05, vehicle 61.3±3.6), the “average ratio of spinal cord white area (injured/sham)” value was 81.9±0.9. The “selectivity for the mouse A2A over the A3 receptor” value in test [2] was determined as 12 fold. Also, in test [2], the A3/A2A is recorded as 12.2. For the same compound, the “protection from contusive injury in Rag1 KO mice compared to Rag1 KO vehicle” value in test [7] was “no evidence of additional protection”.

With `CCNC(=O)[C@H]1O[C@@H](n2cnc3c(N)nc(NCCc4ccc(CCC(=O)O)cc4)nc32)[C@H](O)[C@@H]1O` [CGS21680, 2-[4-(2-carboxyethyl)phenethylamino]-5′-N-ethylcarboxamido-adenosine, reference compound], the Ki in test [1] came to 160 ± 20 nM.

As for `Nc1nc(NCCc2ccc(O)cc2)nc2nc(-c3ccco3)nn12` [ZM241385, 4-(2-[7-Amino-2-[2-furyl][1,2,4]triazolo[2,3-a][1,3,5]triazin-5-yl-amino]ethyl)phenol, reference compound], the Ki in test [1] came out at 16100 nM. Moreover, the “reduction of compressive injury with delayed antagonist treatment” value in test [5] (6 nol/kg IP twice daily for 4 days after delay of 1, 3, 5 or 7 days, FIG. 10) is on record as “Protection is maintained; also recorded: significant compared to vehicle for all delay periods”. Also, in test [5] (6 nmol/kg), the “locomotor function (mBBB score) after spinal cord compression” value is “improvement in locomotor function that was similar to the effect of the agonist”. Moreover, the “protection from contusive injury in Rag1 KO mice compared to Rag1 KO vehicle” value in test [7] is given as “did not significantly improve protection”. Further, the “protection from contusive injury in Rag1 KO mice compared to vehicle” value in test [7] (Rag1 KO mice, compared to vehicle controls, P=0.0015) is on record as “significant protection”.

The values above are taken from patent publication US8188063B2, “Use of adenosine A2A modulators to treat spinal cord injury” (University of Virginia Patent Foundation, priority 2006, dated 2012).
